Source: patent US20240358782A1, “Regulatory Composition of the Neuro-Immune-Endocrine and Cortisol Reducing System of the Human Being” (priority 2020, published 2024)
Marks after values point to notes of the source that are not given here.

Assays:
[1] = system: chorio-allantoic membrane of hen embryonated egg
Excerpt: The first step was to evaluate the cytotoxicity of the composition in a chicken embryonated egg chorio-allantoic membrane (HET-CAM) assay (FIG. 1).

monoamine oxidase (MAO) = conditions: in vitro; cited from earlier work
male Wistar rats [2] = test: Tissue levels of lipoperoxides (LPO) after 10 days of oral treatment (Example 1, Phase 1); assay type: in vivo, rat; conditions: oral daily 10 days, mean ± standard error
male Wistar rats [3] = test: Serum redox state markers after 10 days of oral treatment (Example 1, Phase 1); assay type: in vivo, rat; conditions: oral daily 10 days, dose 257 ml/kgPV, mean ± standard error
Protocol: (§1) In Phase 1, the experiment consisted of providing the same amount (in mg), per kg of live weight (mg/kg BW), of each of the components of the composition of this invention, as well as the same amount of the composition, and comparing the effects with that of control animals, which received placebo or the antibiotic Enramycin. After 10 days, an evaluation of the immune system of the […] of each of the groups was carried out.
(§2) In this way, different groups of male Wistar rats were randomly marked on the tails for identification. The animals were adapted to the laboratory environment for one week before the treatments. Initially, after a 6 h fasting period, the body weight of the animals was determined and the dose of the Composition and Enramycin […] were calculated. The animals were divided into 11 (eleven) groups of 10 (ten) individuals. The animals were treated daily, orally (used in the animals used as reference), with placebo (vehicle; filtered water 1 mL/kg BW) or with FOS Ingredion (257 mg/kg BW), FOS Yes (257 mg/kg BW) kgPV), GOS Yes (257 mg/kgPV), Yes MOS (257 mg/kgPV), Yes GlucanMOS (257 mg/kgPV), Glucangold Yes (77 mg/kgPV), Mixture 1 (FOS Yes+GOS Yes) (257 mg/kgPV), Composition of this invention (GlucanGold Yes+GOS Yes+FOS Yes, containing 20% of 1,3 and 1,6 beta-glucans, 29% of GOS and 31% of FOS by mass on total mass %) ([…]). An experimental group called naive underwent simulated gavage (without any treatment). All the animals that composed the different experimental groups received the treatment for 10 days. At the end of the experiments, and before euthanasia, the animals were fasted for 6 hours with free access to water. Final body weight was recorded to calculate relative organ weight. Then, under anesthesia with isoflurane (2-3%), 5 mL of blood was obtained from the left jugular vein for the evaluation of biochemical parameters. After this procedure, the animals were euthanized with a supra-pharmacological dose of isoflurane (10-15%) in a saturation chamber. […]

male Wistar rats [4] = test: Serum IL-10, IL-6 and TNF-alpha after 10 days of oral treatment (Example 1, Phase 1); assay type: in vivo, rat; conditions: oral daily 10 days, dose 257 mg/kgPV (Enramicine 96 mg/kgPV), mean ± standard error
Protocol: as §1, §2

[5] = system: Salmonella enterica serovar Enteritidis (phagetype PT4); test: Salmonella challenge: deaths and serum cytokines (Example 1, phase 2); assay type: in vivo, rat; conditions: oral treatment 20 days, dose 257 mg/kgPV (Enramicine 96 mg/kgPV)
Excerpt: In phase 2, the experiment consisted of repeating the treatments of Phase 1, for 10 days, and inoculating the groups, except the so-called naive (negative control), with a high dose of Salmonella enteritidis. After 20 days, the mortality and the behavior of the immune system of the rats of each group were observed.
In this way, different groups of male rats were randomly marked on the tails for identification. The animals were adapted to the laboratory environment for one week before the beginning of the experiments. After a 6 h fasting period, the animals' body weight was determined and the dose of the prebiotics, the composition of this invention and Enramycin were calculated. The animals were divided into 11 (eleven) groups of 10 (ten) individuals. The animals were treated daily, by the oral route (used in the animals used as reference), with placebo (vehicle; filtered water 1 mL/kg BW) or with FOS ingredion (257 mg/kg BW), FOS Yes (257 mg/kg BW). kgPV), GOS Yes (257 mg/kgPV), Yes MOS (257 mg/kgPV), GlucanMOS (257 mg/kgPV), Glucangold Yes (77 mg/kgPV), Mixture 1 (FOS Yes+GOS Yes) (257 mg/kgPV), Composition of this invention (GlucanGold Yes+GOS Yes+FOS Yes, containing 20% of 1,3 and 1,6 beta-glucans, 31% of GOS and 29% of FOS by mass on mass %) ([…]). All treatments were performed for 20 days. After 10 days from the beginning of treatments, the aforementioned groups received a challenge with 1 mL (10^8 colony forming units [cfu]/mL) of a strain of Salmonella enterica serovar Enteritidis (phagetype PT4), orally (gavage).
An experimental group called naive underwent sham gavage (no treatment) and was not infected with any bacterial strain. At the end of the experiments, and before euthanasia, the surviving animals were fasted for 6 hours with free access to water. Then, under anesthesia with isoflurane (2-3%), 5 mL of blood was obtained from the left jugular vein for the evaluation of biochemical parameters. After this procedure, the animals were euthanized with a supra-pharmacological dose of isoflurane (10-15%) in a saturation chamber. Immediately after euthanasia, target organs were removed for analysis.
Table 8, below, indicates the effects of treatments with different isolated components, with the Composition according to the invention, or with Enramincin, on the serum levels of interleukin 10 (IL-10), IL-6 and tumor necrosis factor alpha (TNF-alpha) from male Wistar rats infected with Salmonella enterica.

[6] = dose 257 mg/kgPV (Enramicine 96 mg/kgPV)
[7] = dose 257 ml/kgPV (Enramicine 96 ml/kgPV)
[8] = serum, Salmonella-infected male Wistar rats, mean ± standard error

With `[Na+].[OH-]` [NAOH, Sodium Hydroxide] the “hemorrhagic (cytotoxic) effect / irritation on chorio-allantoic membrane” value [1] was “lyse blood vessels, resulting in hemorrhage”.
In the case of `COc1cc(C2Oc3cc([C@H]4Oc5cc(O)cc(O)c5C(=O)[C@@H]4O)ccc3OC2CO)ccc1O` (stereo partly drawn) [siliinin], the “inhibition of monoamine oxidase (MAO) activity” value (monoamine oxidase (MAO)) is listed as “inhibits the activity of monoamine oxidase (MAO)”.
In the case of Enramycin [Enramicine], the “LPO, Kidneys” value (male Wistar rats [2]; [6]) is reported as 119.4 ± 7.1 U/mg of protein, the “LPO, Liver” value (male Wistar rats [2]; [6]) is reported as 170.1 ± 14.1 U/mg of protein and the “LPO, Spleen” value (male Wistar rats [2]; [6]) is reported as 117.5 ± 10.1 U/mg of protein. For the same compound, the “tissue lipoperoxides (LPO), Cecum” value (male Wistar rats [2]; [7]) was 170.2 ± 10.0, the “tissue lipoperoxides (LPO), Colon” value (male Wistar rats [2]; [7]) was 230.2 ± 11.2 and the “tissue lipoperoxides (LPO), Ileum” value (male Wistar rats [2]; [7]) was 117.9 ± 14.2. It also gave a Malondialdehyde (male Wistar rats [3]) of 2.1 ± 0.15 mmol/L, a Nitrite (male Wistar rats [3]) of 45.3 ± 5.51% and a Nitrotirosine (male Wistar rats [3]) of 0.007 ± 0.003 µmol/L. For the same compound, the IL-6 (male Wistar rats [4]) was 210.5 ± 25.5 pg/mL, the IL-10 (male Wistar rats [4]) was 15.3 ± 5.1 pg/mL and the TFN-alfa (male Wistar rats [4]) was 8.0 ± 1.5 pg/mL. For the same compound, the Deaths ([5]; male Wistar rats, Salmonella enterica challenge (1 mL, 10^8 cfu/mL) after 10 days) was 0%, the IL-6 [5, 8] was 249.7 ± 37.7 pg/mL and the IL-10 [5, 8] was 16.6 ± 0.9^b pg/ml. For the same compound, the TFN-alfa [5, 8] was 10.7 ± 1.1^b pg/ml.
